Reference: the NIST ThermoML archive (doi:10.1021/acs.jced.8b00812)

Conditions: Liquid; for viscosity: Capillary tube (Ostwald / Ubbelohde) method; for mass density: Vibrating tube method

CCCCO [butan-1-ol]
Conditions	mass density [kg/m3]	viscosity [mPa·s]
298.12 K, 2010 kPa	806.8	2.608
298.12 K, 3910 kPa	808.2	2.657
298.12 K, 6020 kPa	809.8	2.708
298.12 K, 8030 kPa	811.2	2.752
298.12 K, 9910 kPa	812.5	2.797
298.12 K, 16020 kPa	816.6	2.94
298.12 K, 19030 kPa	818.5	3.018
298.12 K, 22000 kPa	820.4	3.092
298.12 K, 25020 kPa	822.3	3.166
298.12 K, 28000 kPa	824	3.237
298.12 K, 30010 kPa	825.1	3.287
298.13 K, 13010 kPa	814.6	2.867
303.15 K, 2010 kPa	803.3	2.351
303.15 K, 4000 kPa	804.8	2.393
303.15 K, 5980 kPa	806.3	2.436
303.15 K, 8010 kPa	807.8	2.479
303.15 K, 9990 kPa	809.2	2.522
303.15 K, 12990 kPa	811.3	2.586
303.15 K, 15990 kPa	813.3	2.65
303.15 K, 22010 kPa	817.3	2.779
303.15 K, 25010 kPa	819.1	2.843
303.15 K, 27970 kPa	820.9	2.912
303.15 K, 29990 kPa	822.1	2.957
303.16 K, 19000 kPa	815.3	2.714
313.15 K, 10020 kPa	801.8	1.969
313.15 K, 12980 kPa	803.9	2.019
313.15 K, 22020 kPa	810.2	2.182
313.15 K, 25010 kPa	812.2	2.237
313.16 K, 1990 kPa	795.5	1.832
313.16 K, 3980 kPa	797.1	1.868
313.16 K, 5990 kPa	798.7	1.902
313.16 K, 7980 kPa	800.2	1.935
313.16 K, 15980 kPa	806.1	2.073
313.16 K, 19010 kPa	808.2	2.125
313.16 K, 27990 kPa	814.1	2.292
313.16 K, 29990 kPa	815.3	2.329
323.14 K, 2000 kPa	787.9	1.421
323.14 K, 3920 kPa	789.6	1.446
323.14 K, 6030 kPa	791.3	1.473
323.14 K, 8000 kPa	792.9	1.499
323.14 K, 10020 kPa	794.5	1.525
323.14 K, 13040 kPa	796.9	1.565
323.14 K, 16050 kPa	799.2	1.603
323.14 K, 19000 kPa	801.3	1.646
323.14 K, 21990 kPa	803.4	1.684
323.14 K, 24970 kPa	805.5	1.723
323.14 K, 28000 kPa	807.5	1.759
323.14 K, 29970 kPa	808.8	1.785

CCCCCCCCO [octan-1-ol]
Conditions	mass density [kg/m3]	viscosity [mPa·s]
298.15 K, 2000 kPa	823.6	7.363
298.15 K, 4010 kPa	824.8	7.542
298.15 K, 6000 kPa	826	7.702
298.15 K, 8000 kPa	827.2	7.865
298.15 K, 10000 kPa	828.4	8.031
298.15 K, 13010 kPa	830.1	8.3
298.15 K, 16010 kPa	831.8	8.568
298.15 K, 18990 kPa	833.4	8.825
298.15 K, 22010 kPa	835	9.112
298.15 K, 25010 kPa	836.6	9.397
298.15 K, 28010 kPa	838.3	9.668
298.15 K, 30010 kPa	839.3	9.866
303.15 K, 1990 kPa	819.4	6.327
303.15 K, 3990 kPa	820.6	6.481
303.15 K, 5980 kPa	821.9	6.632
303.15 K, 10010 kPa	824.4	6.941
303.15 K, 16020 kPa	827.9	7.4
303.15 K, 19030 kPa	829.7	7.63
303.15 K, 25000 kPa	833	8.087
303.15 K, 29980 kPa	835.6	8.468
303.16 K, 7980 kPa	823.1	6.785
303.16 K, 13000 kPa	826.2	7.169
303.16 K, 22010 kPa	831.3	7.858
303.16 K, 28000 kPa	834.6	8.316
313.15 K, 1970 kPa	812.3	4.516
313.15 K, 4000 kPa	813.6	4.627
313.15 K, 6010 kPa	815	4.737
313.15 K, 8000 kPa	816.3	4.846
313.15 K, 10010 kPa	817.5	4.955
313.15 K, 13030 kPa	819.4	5.12
313.15 K, 15980 kPa	821.2	5.281
313.15 K, 18990 kPa	823	5.446
313.15 K, 21990 kPa	824.8	5.61
313.15 K, 25000 kPa	826.5	5.774
313.15 K, 27980 kPa	828.2	5.937
313.15 K, 29990 kPa	829.3	6.047
323.15 K, 2010 kPa	805.6	3.262
323.15 K, 4010 kPa	807	3.348
323.15 K, 6010 kPa	808.4	3.427
323.15 K, 8000 kPa	809.7	3.499
323.15 K, 10010 kPa	811.1	3.573
323.15 K, 13020 kPa	813	3.688
323.15 K, 16020 kPa	814.9	3.797
323.15 K, 19010 kPa	816.8	3.91
323.15 K, 22000 kPa	818.6	4.03
323.15 K, 25010 kPa	820.4	4.149
323.15 K, 28010 kPa	822.1	4.264
323.15 K, 30020 kPa	823.3	4.343
